Laboratory results published in patent publication US20090197893A1 (Bristol-Myers Squibb Company, priority 2005, published 2009).
Read-outs that look alike come from different tables or passages of the source.

Key:
wild-type BCR-ABL = conditions: cited from earlier work
[1] = tested on: imatinib-resistant BCR-ABL mutants; conditions: cited from earlier work
[2] = Plasma pharmacokinetics in patients; type: in vivo, human; conditions: T315I patients; FIG. 2b
p-glycoprotein = p-glycoprotein (Homo sapiens, UniProt P08183); conditions: cited from earlier work
[3] = tested on: patients with advanced CML or Ph+ ALL with imatinib resistance/intolerance; test: Dasatinib dose escalation clinical trial: hematologic response; conditions: for Hematologic response: CHR / Hematologic response: Major HR / Hematologic response: NEL / Hematologic response: Minor HR: patients n (%); for patients who responded: p=0.049
[4] = tested on: patients with advanced CML or Ph+ ALL with imatinib resistance/intolerance; test: Dasatinib dose escalation clinical trial: cytogenetic response; conditions: for Cytogenetic response: CCyR / Cytogenetic response: Major CyR / Cytogenetic response: Minimal CyR / Cytogenetic response: Overall CyR / Cytogenetic response: PCyR / Cytogenetic response: Minor CyR: patients n (%)
CML patients = conditions: cited from earlier work; for patients who developed resistance to imatinib: 4 years of follow-up
[5] = AP (N = 11), regardless of relationship to treatment, patients n (%)
[6] = AP-CML (N = 11), patients n (%)
[7] = LBC/ALL (N = 10), patients n (%)
[8] = LBC/ALL (N = 10), regardless of relationship to treatment, patients n (%)
[9] = LBC/Ph+ ALL (N = 10), patients n (%)
[10] = MBC N = (23), regardless of relationship to treatment, patients n (%)

Sequence of p-glycoprotein (P08183 whole entry): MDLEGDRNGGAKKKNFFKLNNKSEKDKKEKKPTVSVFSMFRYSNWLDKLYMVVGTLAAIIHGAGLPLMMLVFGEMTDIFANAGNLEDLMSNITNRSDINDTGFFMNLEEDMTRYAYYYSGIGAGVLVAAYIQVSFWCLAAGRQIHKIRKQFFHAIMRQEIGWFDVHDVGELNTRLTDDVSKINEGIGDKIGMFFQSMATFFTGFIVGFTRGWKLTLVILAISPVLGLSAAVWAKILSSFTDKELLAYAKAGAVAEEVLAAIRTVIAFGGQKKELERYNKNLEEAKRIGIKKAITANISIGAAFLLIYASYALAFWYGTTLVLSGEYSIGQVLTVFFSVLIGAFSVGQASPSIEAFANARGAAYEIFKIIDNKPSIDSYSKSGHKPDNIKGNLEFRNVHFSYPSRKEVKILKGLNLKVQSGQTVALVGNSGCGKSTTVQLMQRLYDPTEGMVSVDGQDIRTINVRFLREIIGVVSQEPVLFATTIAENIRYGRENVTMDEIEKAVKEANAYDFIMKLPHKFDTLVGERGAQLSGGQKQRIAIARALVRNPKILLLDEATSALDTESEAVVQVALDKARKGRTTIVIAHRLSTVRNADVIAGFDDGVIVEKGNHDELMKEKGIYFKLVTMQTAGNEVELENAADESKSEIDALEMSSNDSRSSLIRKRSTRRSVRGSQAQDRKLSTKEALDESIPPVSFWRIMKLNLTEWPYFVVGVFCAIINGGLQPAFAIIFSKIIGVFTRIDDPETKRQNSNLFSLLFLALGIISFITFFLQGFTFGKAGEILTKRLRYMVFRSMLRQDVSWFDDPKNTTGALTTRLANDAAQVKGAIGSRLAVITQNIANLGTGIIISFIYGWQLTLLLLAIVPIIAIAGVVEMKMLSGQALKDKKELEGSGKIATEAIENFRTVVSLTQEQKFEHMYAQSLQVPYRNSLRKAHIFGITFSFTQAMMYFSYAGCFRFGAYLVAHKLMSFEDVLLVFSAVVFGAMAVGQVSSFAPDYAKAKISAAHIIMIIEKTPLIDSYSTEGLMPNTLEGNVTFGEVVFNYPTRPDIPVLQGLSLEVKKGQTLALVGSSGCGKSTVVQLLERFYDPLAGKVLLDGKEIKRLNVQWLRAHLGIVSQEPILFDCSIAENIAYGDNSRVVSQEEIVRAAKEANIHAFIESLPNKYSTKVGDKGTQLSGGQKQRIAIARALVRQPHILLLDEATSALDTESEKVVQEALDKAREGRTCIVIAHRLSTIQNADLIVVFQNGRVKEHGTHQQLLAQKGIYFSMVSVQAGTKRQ

Cc1cn(-c2cc(NC(=O)c3ccc(C)c(Nc4nccc(-c5cccnc5)n4)c3)cc(C(F)(F)F)c2)cn1 [AMN107]
IC50 (wild-type BCR-ABL): […] | imatinib-resistant BCR-ABL mutants against which significantly active [1]: 32/33

Cc1nc(Nc2ncc(C(=O)Nc3c(C)cccc3Cl)s2)cc(N2CCN(CCO)CC2)n1 [dasatinib, N-(2-chloro-6-methylphenyl)-2-[[6-[4-(2-hydroxyethyl)-1-piperazinyl]-2-methyl-4-pyrimidinyl]amino]-5-thiazolecarboxamide]
serum levels [2]: adequate | maximum tolerated dose (35-120 mg BID cohorts): not defined | Diarrhea, Grade 1-4 (AP (N = 11), patients n (%)): 5 (45) | Dyspnea/Pulmonary edema, Grade 1-4 (AP (N = 11), patients n (%)): 3 (27) | Flushing, Grade 1-4 (AP (N = 11), patients n (%)): 3 (27) | Generalized edema, Grade 1-4 (AP (N = 11), patients n (%)): 1 (9) | Headache, Grade 1-4 (AP (N = 11), patients n (%)): 3 (27) | Nausea, Grade 1-4 (AP (N = 11), patients n (%)): 1 (9) | On-Study Myelosuppression: ANC, Grade 3 (AP (N = 11), patients n (%)): 3 (27) | On-Study Myelosuppression: Platelets, Grade 3 (AP (N = 11), patients n (%)): 3 (27) | Periorbital edema, Grade 1-4 (AP (N = 11), patients n (%)): 1 (9) | Peripheral edema, Grade 1-4 (AP (N = 11), patients n (%)): 3 (27) | Rash, Grade 1-4 (AP (N = 11), patients n (%)): 5 (45) | Vomiting, Grade 1-4 (AP (N = 11), patients n (%)): 1 (9) | Elevated ALT, Grade 1-4 [5]: 8 (73) | Elevated ALT, Grade 3-4 [5]: 1 (9) | Elevated AST, Grade 1-4 [5]: 7 (64) | Elevated Total bilirubin, Grade 1-4 [5]: 2 (18) | Elevated creatinine, Grade 1-4 [5]: 2 (18) | Hypocalcemia, Grade 1-4 [5]: 8 (73) | Hypocalcemia, Grade 3-4 [5]: 2 (18) | Hypomagnesemia, Grade 1-4 [5]: 5 (45) | Grade 3 or 4 neutropenia on treatment (AP, 9/11 patients): 82% | grade 3/4 thrombocytopenia (AP, 9/11 patients): 82% | On-Study Myelosuppression: ANC, Grade 4 [6]: 6 (55) | On-Study Myelosuppression: Platelets, Grade 4 [6]: 6 (55) | Diarrhea, Grade 1-4 [7]: 2 (20) | Dyspnea/Pulmonary edema, Grade 1-4 [7]: 1 (10) | Generalized edema, Grade 1-4 [7]: 1 (10) | Nausea, Grade 1-4 [7]: 1 (10) | Periorbital edema, Grade 1-4 [7]: 1 (10) | Peripheral edema, Grade 1-4 [7]: 1 (10) | Pleural effusion, Grade 1-4 [7]: 2 (20) | Rash, Grade 1-4 [7]: 1 (10) | Vomiting, Grade 1-4 [7]: 1 (10) | Elevated ALT, Grade 1-4 [8]: 7 (70) | Elevated AST, Grade 1-4 [8]: 9 (90) | Elevated Total bilirubin, Grade 1-4 [8]: 5 (50) | Elevated creatinine, Grade 1-4 [8]: 6 (60) | Hypocalcemia, Grade 1-4 [8]: 7 (70) | Hypocalcemia, Grade 3-4 [8]: 3 (30) | Hypomagnesemia, Grade 1-4 [8]: 3 (30) | On-Study Myelosuppression: ANC, Grade 3 [9]: 2 (20) | On-Study Myelosuppression: ANC, Grade 4 [9]: 6 (60) | On-Study Myelosuppression: Platelets, Grade 3 [9]: 0 | On-Study Myelosuppression: Platelets, Grade 4 [9]: 7 (70) | grade 3/4 thrombocytopenia (LBC/Ph+ ALL, 7/10 patients): 70% | Grade 3 or 4 neutropenia on treatment (LBC/Ph+ ALL, 8/10 patients): 80% | Diarrhea, Grade 1-4 (MBC (N = 23), patients n (%)): 5 (22) | Diarrhea, Grade 3-4 (MBC (N = 23), patients n (%)): 1 (4) | Dyspnea/Pulmonary edema, Grade 1-4 (MBC (N = 23), patients n (%)): 2 (9) | Dyspnea/Pulmonary edema, Grade 3-4 (MBC (N = 23), patients n (%)): 2 (9) | Flushing, Grade 1-4 (MBC (N = 23), patients n (%)): 1 (4) | Headache, Grade 1-4 (MBC (N = 23), patients n (%)): 1 (4) | Nausea, Grade 1-4 (MBC (N = 23), patients n (%)): 4 (17) | On-Study Myelosuppression: ANC, Grade 3 (MBC (N = 23), patients n (%)): 2 (9) | On-Study Myelosuppression: ANC, Grade 4 (MBC (N = 23), patients n (%)): 20 (87) | On-Study Myelosuppression: Platelets, Grade 3 (MBC (N = 23), patients n (%)): 2 (9) | On-Study Myelosuppression: Platelets, Grade 4 (MBC (N = 23), patients n (%)): 17 (74) | Pericardial effusion, Grade 1-4 (MBC (N = 23), patients n (%)): 3 (13) | Pericardial effusion, Grade 3-4 (MBC (N = 23), patients n (%)): 2 (9) | Periorbital edema, Grade 1-4 (MBC (N = 23), patients n (%)): 2 (9) | Peripheral edema, Grade 1-4 (MBC (N = 23), patients n (%)): 5 (22) | Pleural effusion, Grade 1-4 (MBC (N = 23), patients n (%)): 8 (35) | Pleural effusion, Grade 3-4 (MBC (N = 23), patients n (%)): 3 (13) | Rash, Grade 1-4 (MBC (N = 23), patients n (%)): 2 (9) | Rectal hemorrhage, Grade 1-4 (MBC (N = 23), patients n (%)): 2 (9) | Rectal hemorrhage, Grade 3-4 (MBC (N = 23), patients n (%)): 2 (9) | Tumor lysis syndrome, Grade 1-4 (MBC (N = 23), patients n (%)): 2 (9) | Tumor lysis syndrome, Grade 3-4 (MBC (N = 23), patients n (%)): 2 (9) | Vomiting, Grade 1-4 (MBC (N = 23), patients n (%)): 2 (9) | Elevated ALT, Grade 1-4 [10]: 13 (57) | Elevated AST, Grade 1-4 [10]: 13 (57) | Elevated Total bilirubin, Grade 1-4 [10]: 10 (43) | Elevated Total bilirubin, Grade 3-4 [10]: 4 (17) | Elevated creatinine, Grade 1-4 [10]: 12 (52) | Hypocalcemia, Grade 1-4 [10]: 21 (91) | Hypocalcemia, Grade 3-4 [10]: 6 (26) | Hypomagnesemia, Grade 3-4 [10]: 1 (4) | grade 3/4 thrombocytopenia (MBC, 19/23 patients): 83% | Grade 3 or 4 neutropenia on treatment (MBC, 22/23 patients): 96% | severe (grade 4) myelosuppression (advanced phase CML patients): about 70% | patients removed from the study due to a drug-related toxicity (all patients): no patient | Grade 3/4 non-hematologic adverse events (all patients, 9/44): 20% | non-malignant pleural effusions (often in the absence of other edema): 10 patients | substrate for p-glycoprotein (p-glycoprotein): not a substrate | Hematologic response: CHR ([3]; AP CML n = 11): 5 (45) | Hematologic response: Major HR ([3]; AP CML n = 11): 9 (81) | Hematologic response: NEL ([3]; AP CML n = 11): 4 (36) | patients who achieved a major HR remain on study ([3]; AP cohort, 9/11, median of 8 months (range 2-13 months)): 81% | major HR confirmed after 4 weeks ([3]; AP patients, 6): 55% | major HR ([3]; AP patients, 9/11): 81% | Hematologic response: CHR ([3]; LBC-CML/ALL n = 10): 7 (70) | Hematologic response: Major HR ([3]; LBC-CML/ALL n = 10): 8 (80) | Hematologic response: NEL ([3]; LBC-CML/ALL n = 10): 1 (10) | major HR confirmed after 4 weeks ([3]; LBC/Ph+ ALL, 5): 50% | major HR rate ([3]; LBC/Ph+ ALL, 8/10): 80% | major HR confirmed after 4 weeks ([3]; MBC patients, 7): 30% | major HR ([3]; MBC patients, 14/23): 61% | patients who remain on the study ([3]; MBC, 6 of 23, follow-up ranging 5-12 months): 26% | Hematologic response: CHR ([3]; MBC-CML n = 23): 8 (35) | Hematologic response: Major HR ([3]; MBC-CML n = 23): 14 (61) | Hematologic response: Minor HR ([3]; MBC-CML n = 23): 4 (17) | Hematologic response: NEL ([3]; MBC-CML n = 23): 6 (26) | patients who failed to meet the criteria for major or minor hematologic response ([3]; Nine of the 44 patients): 20% | Hematologic response: CHR ([3]; Total N = 44): 20 (45) | Hematologic response: Major HR ([3]; Total N = 44): 31 (70) | Hematologic response: Minor HR ([3]; Total N = 44): 4 (9) | Hematologic response: NEL ([3]; Total N = 44): 11 (25) | patients who responded ([3]; complex karyotypes, 17 of 25 patients): 68% | relapsed within 6 months ([3]; lymphoid blast crisis or Ph+ ALL): all but one patient | patients with durable responses for 10 months or longer ([3]; of the 8 Myeloid BC patients who achieved CHR): 3 | patients who responded ([3]; simple Ph karyotypes, 17 of 18 patients): 94% | CHR ([3]; total patient population, 20/44): 45% | major HR ([3]; total patient population, 31/44): 70% | Cytogenetic response: CCyR ([4]; AP CML n = 11): 2 (18) | Cytogenetic response: Major CyR ([4]; AP CML n = 11): 3 (27) | Cytogenetic response: Minimal CyR ([4]; AP CML n = 11): 1 (9) | Cytogenetic response: Overall CyR ([4]; AP CML n = 11): 4 (36) | Cytogenetic response: PCyR ([4]; AP CML n = 11): 1 (9) | Major cytogenetic responses ([4]; AP patients, 3/11): 27% | Cytogenetic response: CCyR ([4]; LBC-CML/ALL n = 10): 3 (30) | Cytogenetic response: Major CyR ([4]; LBC-CML/ALL n = 10): 8 (80) | Cytogenetic response: Minor CyR ([4]; LBC-CML/ALL n = 10): 1 (10) | Cytogenetic response: Overall CyR ([4]; LBC-CML/ALL n = 10): 9 (90) | Cytogenetic response: PCyR ([4]; LBC-CML/ALL n = 10): 5 (50) | MCyR rate ([4]; LBC/Ph+ ALL patients, 8/10): 80% | overall cytogenetic response rate ([4]; LBC/Ph+ ALL patients, 9/10): 90% | Cytogenetic responses ([4]; MBC patients, 12/23): 52% | Cytogenetic response: CCyR ([4]; MBC-CML n = 23): 6 (26) | Cytogenetic response: Major CyR ([4]; MBC-CML n = 23): 8 (35) | Cytogenetic response: Minimal CyR ([4]; MBC-CML n = 23): 2 (9) | Cytogenetic response: Minor CyR ([4]; MBC-CML n = 23): 2 (9) | Cytogenetic response: Overall CyR ([4]; MBC-CML n = 23): 12 (52) | Cytogenetic response: PCyR ([4]; MBC-CML n = 23): 2 (9) | Cytogenetic response: CCyR ([4]; Total N = 44): 11 (25) | Cytogenetic response: Major CyR ([4]; Total N = 44): 19 (43) | Cytogenetic response: Minimal CyR ([4]; Total N = 44): 3 (7) | Cytogenetic response: Minor CyR ([4]; Total N = 44): 3 (7) | Cytogenetic response: Overall CyR ([4]; Total N = 44): 25 (57) | Cytogenetic response: PCyR ([4]; Total N = 44): 8 (18) | CCyR ([4]; total patient population, 11/44): 25% | major CyR (CCyR plus PCyR) ([4]; total patient population, 19/44): 43% | CyR ([4]; total patient population, 25/44): 57%

Cc1ccc(NC(=O)c2ccc(CN3CCN(C)CC3)cc2)cc1Nc1nccc(-c2cccnc2)n1 [imatinib]
patients who developed resistance to imatinib (CML patients; AP CML patients): 75% | patients who developed resistance to imatinib (CML patients; BC patients): 95% | estimated 2-year incidence of resistance (CML patients; blastic phase): 80% | estimated 2-year incidence of resistance (CML patients; chronic phase post-interferon-α failure): 10%
